In patent publication US9944602B2, “Piperidinone herbicides” (E. I. DU PONT DE NEMOURS AND COMPANY, priority 2014, dated 2018):

What was measured:
Type in all cases: in vivo
[1] = system: barnyardgrass (Echinochloa crus-galli); assay: Test A preemergence barnyardgrass; conditions: 0 to 100 scale; for Barnyardgrass plant response rating: 0 no effect, 100 complete control
In short: (§1)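 Seeds sown in loam–sand blend received a directed preemergence soil spray; postemergence plants (2–10 cm, one- to two-leaf stage) were sprayed in the same soil. Chemicals were formulated in non-phytotoxic solvent with surfactant. After ~10 d in greenhouse, injury was rated visually against untreated controls, 0 (no effect) to 100 (complete control).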

[2] = system: kochia (Kochia scoparia); assay: Test A preemergence kochia; conditions: 0 to 100 scale, 0 no effect, 100 complete control
In short: as §1

[3] = system: ragweed (common ragweed, Ambrosia elatior); assay: Test A preemergence ragweed; conditions: 0 to 100 scale, 0 no effect, 100 complete control
In short: as §1

[4] = system: ryegrass, Italian (Italian ryegrass, Lolium multiflorum); assay: Test A preemergence ryegrass, Italian; conditions: 0 to 100 scale, 0 no effect, 100 complete control
In short: as §1

[5] = system: foxtail, giant (giant foxtail, Setaria faberii); assay: Test A preemergence foxtail, giant; conditions: 0 to 100 scale, 0 no effect, 100 complete control
In short: as §1

[6] = system: pigweed (Amaranthus retroflexus); assay: Test A preemergence pigweed; conditions: 0 to 100 scale, 0 no effect, 100 complete control
In short: as §1

[7] = system: barnyardgrass (Echinochloa crus-galli); assay: Test A postemergence barnyardgrass; conditions: 0 to 100 scale, 0 is no effect, 100 is complete control
In short: as §1

[8] = system: kochia (Kochia scoparia); assay: Test A postemergence kochia; conditions: 0 to 100 scale, 0 is no effect, 100 is complete control
In short: as §1

[9] = system: ragweed (common ragweed, Ambrosia elatior); assay: Test A postemergence ragweed; conditions: 0 to 100 scale, 0 is no effect, 100 is complete control
In short: as §1

[10] = system: ryegrass, Italian (Italian ryegrass, Lolium multiflorum); assay: Test A postemergence ryegrass, Italian; conditions: 0 to 100 scale, 0 is no effect, 100 is complete control
In short: as §1

[11] = system: foxtail, giant (giant foxtail, Setaria faberii); assay: Test A postemergence foxtail, giant; conditions: 0 to 100 scale, 0 is no effect, 100 is complete control
In short: as §1

[12] = system: pigweed (Amaranthus retroflexus); assay: Test A postemergence pigweed; conditions: 0 to 100 scale, 0 is no effect, 100 is complete control
In short: as §1

[13] = system: wheat (Triticum aestivum); assay: Test A postemergence wheat; conditions: 0 to 100 scale, 0 is no effect, 100 is complete control
In short: as §1

[14] = system: corn (Zea mays); assay: Test A postemergence corn; conditions: 0 to 100 scale, 0 is no effect, 100 is complete control
In short: as §1

[15] = system: blackgrass (Alopecurus myosuroides); assay: Test A postemergence blackgrass; conditions: 0 to 100 scale, 0 is no effect, 100 is complete control
In short: as §1

[16] = system: galium (catchweed bedstraw, Galium aparine); assay: Test A postemergence galium; conditions: 0 to 100 scale, 0 is no effect, 100 is complete control
In short: as §1

[17] = system: rice (Oryza sativa); assay: Test C flooded paddy test rice; conditions: Table C, Flood, scale 0 to 100
Excerpt: (§2) Plant species in the flooded paddy test consisted of rice (Oryza sativa), sedge, umbrella (small-flower umbrella sedge, Cyperus difformis), ducksalad (Heteranthera limosa), and barnyardgrass (Echinochloa crus-galli) grown to the 2-leaf stage for testing. At time of treatment, test pots were flooded to 3 cm above the soil surface, treated by application of test compounds directly to the paddy water, and then maintained at that water depth for the duration of the test. Treated plants and controls were maintained in a greenhouse for 13 to 15 d, after which time all species were compared to controls and visually evaluated. Plant response ratings, summarized in Table C, are based on a scale of 0 to 100 where 0 is no effect and 100 is complete control. A dash (-) response means no test result.

[18] = system: sedge, umbrella (small-flower umbrella sedge, Cyperus difformis); assay: Test C flooded paddy test sedge, umbrella; conditions: Table C, Flood, scale 0 to 100
Excerpt: as §2

[19] = system: ducksalad (Heteranthera limosa); assay: Test C flooded paddy test ducksalad; conditions: Table C, Flood, scale 0 to 100
Excerpt: as §2

[20] = system: barnyardgrass (Echinochloa crus-galli); assay: Test C flooded paddy test barnyardgrass; conditions: Table C, Flood, scale 0 to 100
Excerpt: as §2

[21] = system: rice (Oryza sativa); assay: Test B flooded paddy test rice; conditions: Table B, Flood, 500 g ai/ha, scale 0 to 100
In short: (§3)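 Plants grown to the 2-leaf stage; pots flooded to 3 cm above soil at treatment, compound applied directly into paddy water, depth held throughout. Greenhouse 13 to 15 d, then visual evaluation against untreated controls.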

[22] = system: sedge, umbrella (small-flower umbrella sedge, Cyperus difformis); assay: Test B flooded paddy test sedge, umbrella; conditions: Table B, Flood, 500 g ai/ha, scale 0 to 100
In short: as §3

[23] = system: ducksalad (Heteranthera limosa); assay: Test B flooded paddy test ducksalad; conditions: Table B, Flood, 500 g ai/ha, scale 0 to 100
In short: as §3

[24] = system: barnyardgrass (Echinochloa crus-galli); assay: Test B flooded paddy test barnyardgrass; conditions: Table B, Flood, 500 g ai/ha, scale 0 to 100
In short: as §3

With `O=C1NCCC(c2ccc(C(F)(F)F)cc2)C1C(=O)Nc1ccccc1C(F)(F)F` (racemic) [Compound 12] the “Barnyardgrass plant response rating” value ([1]; 125 g ai/ha) was 20, the “Plant response rating, Barnyardgrass” value ([1]; 500 g ai/ha, 0 is no effect, 100 is complete control) was 70 and the “Kochia plant response rating” value ([2]; 125 g ai/ha) was 0. For the same compound, the “Kochia plant response rating” value ([2]; 500 g ai/ha) was 0, the “Ragweed plant response rating” value ([3]; 125 g ai/ha) was 0 and the “Ragweed plant response rating” value ([3]; 500 g ai/ha) was 0. The “Ryegrass, Italian plant response rating” value ([4]; 125 g ai/ha) was 0, the “Ryegrass, Italian plant response rating” value ([4]; 500 g ai/ha) was 0 and the “Foxtail, Giant plant response rating” value ([5]; 125 g ai/ha) was 20. The “Foxtail, Giant plant response rating” value ([5]; 500 g ai/ha) was 70, the “Pigweed plant response rating” value ([6]; 125 g ai/ha) was 0 and the “Pigweed plant response rating” value ([6]; 500 g ai/ha) was 0. The “Plant response rating, Barnyardgrass” value ([7]; 125 g ai/ha) was 20, the “Plant response rating, Barnyardgrass” value ([7]; 500 g ai/ha) was 60 and the “Plant response rating, Kochia” value ([8]; 125 g ai/ha) was 0. For the same compound, the “Plant response rating, Kochia” value ([8]; 500 g ai/ha) was 0, the “Plant response rating, Ragweed” value ([9]; 125 g ai/ha) was 0 and the “Plant response rating, Ragweed” value ([9]; 500 g ai/ha) was 0. The “Plant response rating, Ryegrass, Italian” value ([10]; 125 g ai/ha) was 0, the “Plant response rating, Ryegrass, Italian” value ([10]; 500 g ai/ha) was 0 and the “Plant response rating, Foxtail, Giant” value ([11]; 125 g ai/ha) was 20. For the same compound, the “Plant response rating, Foxtail, Giant” value ([11]; 500 g ai/ha) was 60, the “Plant response rating, Pigweed” value ([12]; 125 g ai/ha) was 0 and the “Plant response rating, Pigweed” value ([12]; 500 g ai/ha) was 0. The “Plant response rating, Wheat” value ([13]; 125 g ai/ha) was 0, the “Plant response rating, Wheat” value ([13]; 500 g ai/ha) was 0 and the “Plant response rating, Corn” value ([14]; 125 g ai/ha) was 0. For the same compound, the “Plant response rating, Corn” value ([14]; 500 g ai/ha) was 0, the “Plant response rating, Blackgrass” value ([15]; 125 g ai/ha) was 0 and the “Plant response rating, Blackgrass” value ([15]; 500 g ai/ha) was 0. For the same compound, the “Plant response rating, Galium” value ([16]; 125 g ai/ha) was 0, the “Plant response rating, Galium” value ([16]; 500 g ai/ha) was 0 and the Plant response rating ([17]; 125 g ai/ha) was 0. It also gave a Plant response rating ([17]; 250 g ai/ha) of 0, a Plant response rating ([17]; 500 g ai/ha) of 0 and a Plant response rating ([17]; 1000 g ai/ha) of 0. It also gave a Plant response rating ([18]; 125 g ai/ha) of 0, a Plant response rating ([18]; 250 g ai/ha) of 0 and a Plant response rating ([18]; 500 g ai/ha) of 10. The Plant response rating ([18]; 1000 g ai/ha) was 25, the Plant response rating ([19]; 125 g ai/ha) was 0 and the Plant response rating ([19]; 250 g ai/ha) was 35. For the same compound, the Plant response rating ([19]; 500 g ai/ha) was 75, the Plant response rating ([19]; 1000 g ai/ha) was 100 and the Plant response rating ([20]; 125 g ai/ha) was 0. It also gave a Plant response rating ([20]; 250 g ai/ha) of 15, a Plant response rating ([20]; 500 g ai/ha) of 20 and a Plant response rating ([20]; 1000 g ai/ha) of 25.
For `O=C1NCCC(c2ccc(C(F)(F)F)cc2)C1C(=O)Nc1cccc(F)c1Cl` (racemic) [Compound 15], the “Barnyardgrass plant response rating” value ([1]; 125 g ai/ha) was 60, the “Barnyardgrass plant response rating” value ([1]; 500 g ai/ha) was 80 and the “Kochia plant response rating” value ([2]; 125 g ai/ha) was 0. The “Kochia plant response rating” value ([2]; 500 g ai/ha) was 0, the “Ragweed plant response rating” value ([3]; 125 g ai/ha) was 0 and the “Ragweed plant response rating” value ([3]; 500 g ai/ha) was 80. For the same compound, the “Ryegrass, Italian plant response rating” value ([4]; 125 g ai/ha) was 0, the “Ryegrass, Italian plant response rating” value ([4]; 500 g ai/ha) was 0 and the “Foxtail, Giant plant response rating” value ([5]; 125 g ai/ha) was 80. The “Foxtail, Giant plant response rating” value ([5]; 500 g ai/ha) was 90, the “Pigweed plant response rating” value ([6]; 125 g ai/ha) was 0 and the “Pigweed plant response rating” value ([6]; 500 g ai/ha) was 0. The “Plant response rating, Barnyardgrass” value ([7]; 125 g ai/ha) was 60, the “Plant response rating, Barnyardgrass” value ([7]; 500 g ai/ha) was 70 and the “Plant response rating, Kochia” value ([8]; 125 g ai/ha) was 10. The “Plant response rating, Kochia” value ([8]; 500 g ai/ha) was 60, the “Plant response rating, Ragweed” value ([9]; 125 g ai/ha) was 0 and the “Plant response rating, Ragweed” value ([9]; 500 g ai/ha) was 40. The “Plant response rating, Ryegrass, Italian” value ([10]; 125 g ai/ha) was 0, the “Plant response rating, Ryegrass, Italian” value ([10]; 500 g ai/ha) was 0 and the “Plant response rating, Foxtail, Giant” value ([11]; 125 g ai/ha) was 70. The “Plant response rating, Foxtail, Giant” value ([11]; 500 g ai/ha) was 80, the “Plant response rating, Pigweed” value ([12]; 125 g ai/ha) was 0 and the “Plant response rating, Pigweed” value ([12]; 500 g ai/ha) was 0. For the same compound, the “Plant response rating, Wheat” value ([13]; 125 g ai/ha) was 0, the “Plant response rating, Wheat” value ([13]; 500 g ai/ha) was 0 and the “Plant response rating, Corn” value ([14]; 125 g ai/ha) was 0. The “Plant response rating, Corn” value ([14]; 500 g ai/ha) was 0, the “Plant response rating, Blackgrass” value ([15]; 125 g ai/ha) was 20 and the “Plant response rating, Blackgrass” value ([15]; 500 g ai/ha) was 50. The “Plant response rating, Galium” value ([16]; 125 g ai/ha) was 30, the “Plant response rating, Galium” value ([16]; 500 g ai/ha) was 70 and the Plant response rating [21] was 0. It also gave a Plant response rating [22] of 0, a Plant response rating [23] of 60 and a Plant response rating [24] of 40.
